Results published in patent US20210071183A1, “ZINC ASSOCIATED TREATMENT FOR AND DIAGNOSIS OF CACHEXIA” (THE TRUSTEES OF COLUMBIA UNIVERSITY IN THE CITY OF NEW YORK, priority 2018, published 2021).
Where a SMILES comes first, the peptide text is derived from it. The star is where a group is joined. Cbz = O=C(OCc1ccccc1)*

Tests used:
Zip14 expression [1] = assay: Zip14 qRT-PCR in human primary skeletal myoblasts treated with cytokines and signaling pathway inhibitors; assay type: cell-based; conditions: human primary muscle cells; for Zip14 expression after recombinant cytokine treatment: TNFα 50 ng/ml, TGFβ 10 ng/ml
Experimental: (§1) Treatment with cytokines and signaling pathway inhibitors: Murine C2C12 myoblasts and human primary skeletal myoblasts were serum-starved overnight, and then treated with or without inhibitors of the TGFβ/Smad, […] pathways, which are SB431542 (purchased from Thermo Fisher), CC401 (purchased from Thermo Fisher) and BAY 11-7085 (purchased from Enzo), respectively, followed by treatment with recombinant cytokines purchased from R&D Systems (recombinant mouse TNFα and TGFβ1 at 50 ng/ml and 10 ng/ml, respectively, for C2C12, recombinant human TNFα and TGFβ1 at 50 ng/ml and 10 ng/ml, respectively, for human primary skeletal myoblasts). Cells were pretreated with either vehicle (DMSO) control, or 10 μM of the respective pathway inhibitors for 1 hour, and then treated with TGFβ1 for 9 hours or TNFα for 3 hours before harvest. Cells with different treatments were harvested together for subsequent analysis.

Zip14 expression [2] = assay: Zip14 qRT-PCR in murine C2C12 myoblasts treated with cytokines and signaling pathway inhibitors; assay type: cell-based, mouse; conditions: for Zip14 expression after recombinant cytokine treatment: murine C2C12 myoblasts, TNFα 50 ng/ml, TGFβ 10 ng/ml
Experimental: as §1

4T1 tumor-bearing mice = assay: Zinc chelator injection in 4T1 tumor-bearing mice; assay type: in vivo, mouse; conditions: 150 mg/kg body weight daily from 7 days post-tumor cell injection, 4 weeks
Experimental: The effects of zinc chelator injection were analyzed using healthy or C26m2 tumor bearing mice. Excess zinc supplementation exacerbates muscle wasting, while zinc chelation reduces muscle wasting in tumor-bearing mice. […] (A-B) Healthy or C26m2 tumor bearing mice of the indicated genotypes (Zip14 WT or KO) were either treated with regular or zinc-enriched water (25 mM) from the day of tumor cell injection and muscles were collected after […]. Body weight analysis (A) and relative MuRF1/MAFBx mRNA expression levels indicative of muscle wasting (B) are shown. C. Mice were injected with 4T1 tumor cells and were divided into 3 groups, one was provided with regular diet with 86 ppm zinc, second group with 1000 ppm zinc-supplemented diet (high zinc diet) and third group with regular diet with 86 ppm zinc but with zinc chelator injected daily with Sodium diethyldithiocarbamate trihydrate (DEDTC) at 150 mg/kg body weight injected 7 days post-tumor cell injection. Mice were sacrificed after 4 weeks post-tumor cell injection. In all experiments, n=3-8 per group. ns, not significant. *p≤0.05, **p≤0.01, ***p≤0.001 and ****p≤0.0001.

[3] = system: myosin heavy chain (MyHC); assay: Zinc and MG132 treatment of differentiated C2C12 muscle cells (immunoblot of myofibrillar proteins); assay type: cell-based, mouse
Experimental: (§2) Zinc and MG132 treatment of muscle cells: 3-day differentiated C2C12 cells were cultured with 50 μM ZnCI2 in differentiation medium for 24 hours. Cells were then used for immunofluorescence staining, gene expression analysis and immunoblot analysis. For MG-132 (benzyloxycarbonylleucyl-leucyl-leucine aldehyde, a proteasome inhibitor) treatment, 3-day differentiated C2C12 cells expressing Zip14 (Adeno-Zip14) were treated with 50 μM ZnCI2 for 24 hours, and then treated with either vehicle (DMSO) or MG132 (50 μM) for 3 hours prior to harvest for immunoblot analysis.
Subcellular fractionation of differentiated C2C12 muscle cells: Fractionation of soluble and myofibrillar components was performed. Differentiated C2C12 muscle cells were collected in cold lysis buffer (20 mM of Tris-HCl pH 7.2, 5 mM of EGTA, 100 mM of KCl, 1% Triton X-100, and 1× protease and phosphatase inhibitor cocktail), and lysed by gentle agitation at 4° C. for 1 h. After centrifugation at 3,000×g for 30 mins at 4° C., the cytosolic fraction (supernatant) was collected and stored in −80° C. The pellet (myofibrils) was washed twice with wash buffer (20 mM of Tris-HCl, pH 7.2, 100 mM of KCl, and 1 mM of DTT). After centrifugation at 3,000×g for 10 mins at 4° C., myofibrillar fraction was extracted in ice-cold extraction buffer (0.6 M of KCl, 1% Triton X-100, 2 mM of EDTA, 1 mM of DTT and 1× protease and phosphatase inhibitor cocktail) with shaking at 4° C. The purified myofibrillar fraction was collected after centrifugation for 3,000×g at 4° C. and stored in −80° C. until further use.

[4] = system: C26m2 tumor-bearing Zip14 WT and KO mice; assay: Zinc-supplemented water treatment for mice; assay type: in vivo, mouse
Experimental: (§3) Zinc-supplemented water treatment for mice: ZnS04 solution was purchased from Sigma. Zip14 WT and KO mice were given either regular water or zinc-supplemented drinking water (25 mM ZnS04 in their drinking water). Zinc water was started from the day of tumor injection in the tumor-bearing group and in matched uninjected controls, which continued until the animals were euthanized at 15 days. Tumors were not resected because cachectic symptoms started to develop early and were visible between 8-10 days in the tumor-bearing Zip14 WT group of mice on zinc-enriched water.

[5] = Food and water intake, behavioral coordination, liver and kidney function with zinc-supplemented water; assay type: in vivo, mouse; conditions: C26m2 tumor-bearing mice with excess zinc supplementation
Experimental: as §3
Behavioral coordination tests in mice: Rotamex-5 (Columbus Instruments) with a rod diameter of 3 cm, was used for testing coordination in mice. In this setup, automatic fall detection is implemented within each lane by a series of photocells placed above the rotating rod. The speed of the rotating rod is programmed for either constant or accelerated modes. […] Latency to fall is detected with 0.1 second temporal resolution. […] For each mouse, an average of 3 runs are recorded, with 5 minutes rest between each run. The speed that the rod is spinning at when the mouse falls is measured in RPMs. The time it takes for the mouse to fall is measured in seconds. […] When the mice fall off the speed of the rod and amount of time the mouse was on the rod are recorded. […]

[6] = system: Zip14-expressing myoblasts; assay: Muscle differentiation assays with zinc; assay type: cell-based, mouse
Experimental: Adenoviral infection: C2C12 cells or mouse primary myoblasts were cultured overnight. C2C12 cells were infected with adenovirus expressing either GFP (green fluorescent protein) control (Adeno-GFP) or mouse Zip14 (Adeno-Zip14, purchased from Vector Biolabs). Primary myoblasts were infected with adenovirus expressing either GFP control (Adeno-GFP) or mouse Zip14 (Adeno-Zip14).
Muscle differentiation assays: Differentiation was initiated after adenoviral infection by switching the growth medium to differentiation medium (DMEM containing 2% horse serum and 5 μg/ml of insulin for C2C12 cells; DMEM containing 2% horse serum without insulin for primary myoblasts) the day after infection. Differentiation medium was changed at designated time-points.
as §2

C2C12 cells = assay: Cell viability assay (MTS, cleaved caspase-3); assay type: cell-based; conditions: Zip14-expressing cells; 50 μM ZnCl2 24 h
Experimental: Cell viability assay: Viability of C2C12 cells was determined by MTS assay (a cell proliferation assay based on a colorimetric method for quantification of viable cells in proliferation and cytotoxicity assay) using CellTiter 96® Aqueous One Solution Cell Proliferation Assay kit (purchased from Promega) containing tetrazolium compound. C2C12 cells infected with Adeno-GFP control or Adeno-Zip14 were plated in growth media and differentiated. Cells were treated with 50 μM of ZnCl2 for 24 h. Cell viability was measured by adding 100 μl of growth medium without phenol red to each well after aspirating media from the wells. 20 μl of CellTiter 96 AGueous One Solution Reagent was added to each well. After 1 hour of incubation at 37° C. in CO2 incubator, the amount of soluble formazan was determined by absorbance at 450 nm. Undifferentiated and differentiated C2C12 cells were collected for immunoblot analysis probing for cleaved-caspase-3 expression to assess cell-death. C2C12 cells treated with the indicated doses of doxorubicin (doxo) (purchased from Sigma) served as positive control for both types of viability assays.

[7] = Zip14-expressing myotubes treated with zinc (50 μM) for 24 hours
[8] = Zip14-wild-type tumor-bearing mice (C26m2), 25 mM ZnSO4 drinking water

CC(C)(C)c1ccc(S(=O)(=O)/C=C/C#N)cc1 [Bay11-7085]
Zip14 expression (TNFα-induced) (Zip14 expression [1]; TNFα 50 ng/ml 3 hours, 10 μM inhibitor pretreated 1 hour, qRT-PCR): blocked | Zip14 expression (TNFα-induced) (Zip14 expression [2]; murine C2C12 cells, TNFα 50 ng/ml 3 hours, 10 μM inhibitor pretreated 1 hour, qRT-PCR): blocked

CCN(CC)C(=S)[S-].O.O.O.[Na+] [DEDTC, Sodium diethyldithiocarbamate trihydrate]
muscle wasting (4T1 tumor-bearing mice): reduces

CC(C)C[C@@H](C=O)NC(=O)[C@H](CC(C)C)NC(=O)[C@H](CC(C)C)NC(=O)OCc1ccccc1 [MG132, benzyloxycarbonylleucyl-leucyl-leucine aldehyde, reference compound] (Cbz-Leu-Leu-Leu-aldehyde)
MyHC loss ([3]; Zip14-expressing 3-day differentiated C2C12, 50 μM ZnCl2 24 h, MG132 50 μM 3 hours prior to harvest): could be blocked

NC(=O)c1ccc(-c2nc(-c3ccc4c(c3)OCO4)c(-c3ccccn3)[nH]2)cc1 [SB431542]
Zip14 expression (TGFβ-induced) (Zip14 expression [1]; TGFβ 10 ng/ml 9 hours, 10 μM inhibitor pretreated 1 hour, qRT-PCR): blocked | Zip14 expression (TGFβ-induced) (Zip14 expression [2]; murine C2C12 cells, TGFβ 10 ng/ml 9 hours, 10 μM inhibitor pretreated 1 hour, qRT-PCR): blocked

[Zn] [zinc]
MyHC protein [3, 7]: striking loss | skeletal actin, tropomyosin, troponin, desmin and myosin light chain (MyLC) protein [3, 7]: remained unchanged | body weight loss [4, 8]: substantial acceleration | muscle atrophy [4, 8]: increase | growth kinetics ([4]; absence of tumors, Zip14-wild-type and knockout mice, 25 mM ZnSO4 drinking water): no detrimental effect | muscle wasting ([4]; tumor-bearing mice, zinc-enriched water (25 mM) or 1000 ppm zinc-supplemented diet): exacerbates | food or water intake, behavior, liver or kidney function [5]: No changes | differentiation of myoblasts (MyHC expression, morphology) ([6]; Zip14-expressing C2C12 and primary myoblasts, 50 μM ZnCl2): selectively blocked | MyoD, Mef2c, and Myf5 transcription ([6]; Zip14-expressing C2C12 myoblasts, 50 μM ZnCl2 24 hours, qRT-PCR): transcriptional repression | viability (C2C12 cells): no loss

TGFβ: recombinant mouse or human TGFβ1 cytokine from R&D Systems
Zip14 expression after recombinant cytokine treatment (Zip14 expression [1]): significantly induced | Zip14 expression after recombinant cytokine treatment (Zip14 expression [2]): significantly induced

TNFα
Zip14 expression after recombinant cytokine treatment (Zip14 expression [1]): significantly induced | Zip14 expression after recombinant cytokine treatment (Zip14 expression [2]): significantly induced
